One molecule from patent US20240261417A1, “SOS1 DEGRADING AGENT AND PREPARATION METHOD THEREFOR AND APPLICATION THEREOF” (SHANGHAI LEADINGTAC PHARMACEUTICAL CO. LTD., priority 2021, published 2024) can be followed below.

The structures appear in SMILES notation.

What all share (assay type): cell-based
What all share (details): 7 days, CTG

Test [1] has as its system KRAS G12C mutant human non-small cell lung cancer cells NCI-H358. Nature of the test: 3D cell proliferation inhibition assay, NCI-H358. The procedure: (§1) Inhibition of 3D cell proliferation by the compounds was investigated on KRAS G12C mutant human non-small cell lung cancer cells NCI-H358 (ATCC or Stem Cell Bank, Chinese Academy of Sciences), KRAS G12D mutant human metastatic pancreatic adenocarcinoma cells AsPC-1 (ATCC), KRAS G12V mutant human lung adenocarcinoma cells NCI-H441 (ATCC), and KRAS G13D mutant human colorectal adenocarcinoma epithelial cells DLD-1 (ATCC). The specific procedures were as follows:
(§2) 200 nL of compound solution diluted in a gradient was added to corresponding microwells of a 384-well low-adsorption microwell plate (Corning, 3657) using an Echo sonic pipetting system (Labcyte, Echo 550), so that the final concentration of the test compound in the reaction system was in a range of 20000 nM-0.008 nM. Then 40 μL of cells at a certain density were added to the corresponding microplate. In addition to test wells for the test compounds, both a DMSO control well and a medium control well were set, with the DMSO control well containing DMSO and cells and the medium well containing only medium. After sample loading, the plate cover was applied, and the 384-well low-adsorption microplate was incubated in an incubator at 37° C. with 5% carbon dioxide for 7 days. After 7 days, the microplate was taken out, and 40 μL of CTG reagent (Promega, G9683) was added to each well. The plate was incubated at room temperature for 30 min and read on a microplate reader EnVision using the chemiluminescence program. The inhibition rates of the compounds at each concentration were calculated by the formula for the percentage inhibition of cell proliferation: inhibition rate %=(mean value of DMSO control group−single concentration reading value of compound)/(mean value of DMSO control group−mean value of medium control group)×100, and then nonlinear curve fitting was performed by GraphPad Prism 8 in the logarithmic concentration-inhibition rate to obtain the IC50 values of the compounds.

Test [2] deals with KRAS G12V mutant human lung adenocarcinoma cells NCI-H441. Nature of the test: 3D cell proliferation inhibition assay, NCI-H441. The procedure:
as §1, §2

Test [3] has as its system KRAS G13D mutant human colorectal adenocarcinoma epithelial cells DLD-1. Nature of the test: 3D cell proliferation inhibition assay, DLD-1. The procedure: as §1, §2
Test [4] deals with KRAS G12D mutant human metastatic pancreatic adenocarcinoma cells AsPC-1. Nature of the test: 3D cell proliferation inhibition assay, AsPC-1. How it is done:
as §1, §2

For the molecule `COc1cc2nc(C)nc(N[C@H](C)c3cc(N)cc(C(F)(F)F)c3)c2cc1C1CCC(C(=O)N2CCN(CC3CCC4(CC3)CCN(C(=O)c3ccc(OC)c(N5CCC(=O)NC5=O)c3)CC4)CC2)CC1` (stereo partly drawn) [Example 20, 1-(5-(9-((4-((1R,4R)-4-(4-(((R)-1-(3-amino-5-(trifluoromethyl)phenyl)ethyl)amino)-7-methoxy-2-methylquinazolin-6-yl)cyclohexane-1-carbonyl)piperazin-1-yl)methyl)-3-azaspiro[5.5]undecane-3-carbonyl)-2-methoxyphenyl)dihydropyrimidine-2,4(1H,3H)-dione], the IC50 in test [1] was at most 15 nM; in test [2] it was at most 15 nM; in test [3], 15 to 30 nM; in test [4] it was 50 to 100 nM.
